# Measurements reported in patent publication US9555061B2, “Synthesis and analysis of compounds capable of inducing differentiation of human mesenchymal stems cells into hepatocytes” (National University Corporation Torrori University, priority 2011, dated 2017).
# Legend:
# Format in all cases: cell-based, human
# [1] = tested on: Wnt/β-catenin signaling pathway; test: Ability of inhibiting Wnt/β-catenin pathway, luciferase assay (UE7T-13); details: 8 days after the treatment; pTCF4-CMV-luciferase reporter
# Source text: FIG. 3 is a schematic diagram illustrating how to establish a human mesenchymal stem cell stably expressing a β-catenin/TCF4/luciferase reporter gene. FIG. 3 illustrates how to construct pTCF4-CMVpro-GL4.20 plasmid by using a luciferase expression vector. The pTCF4-CMVpro-GL4.20 plasmid contains three TCF4 sequences […] upstream of a CMV promoter to express luciferase. In addition, pCMVpro-GL4.20 plasmid was constructed as a control. The resulting plasmids were each linearized, introduced into UE7T-13 by electroporation, and selected using puromycin (0.25 μg/ml) supplemented in a medium. Puromycin-resistant cells were cloned and used for a luciferase assay.
# The cell line having a vector stably expressing luciferase was seeded on a 24-well plate, and was cultured at 37° C. At the next day, the medium was changed to a medium containing IC-2, etc., and the cell line was further cultured at 37° C. After that, at days 1, 4, and 8, a luciferase assay system (Promega) was used and the luciferase activity was read with a fluorescence plate reader (ARVO) at a wavelength of 556 nm.
# [2] = tested on: bone marrow-derived mesenchymal stem cells; test: RT-PCR of albumin in sorted bone marrow-derived mesenchymal stem cells; details: 45 μM
# Protocol: Cells were seeded on a 6-well plate at a cell density of 1.8×10^4 cells/cm^2. This day was designated as day 0. At day 1 corresponding to the next day, the medium was changed to a medium containing IC-2 (at a final concentration of 25, 35, or 45 μM) or 0.1% DMSO. At day 4, the medium was changed in a manner similar to that at day 1, and at day 8, the cells were reseeded and subcultured at a cell density of 1.8×10^4 cells/cm^2. After that, the medium was replaced twice during 8 days, and the cells were subcultured every 8 days. Then, the similar operation was carried out until day 24. At days 8, 16, and 24 after the initiation of the induction, TRIzol (Invitrogen) was used to extract total RNA according to the attached instruction. After the extraction, deoxyribonuclease (Nippon Gene) was added, and the mixture was incubated at 37° C. for 30 min to remove DNA. In a reverse transcription reaction, SuperScriptII Reverse Transcriptase (Invitrogen) and Oligo(dT)15 primer were added to 1 μg of RNA to convert it into cDNA. In a RT-PCR method, the cDNA was diluted by 5 times. Next, 1 μl of the cDNA was used as a template. Then, rTaq DNA polymerase (TOYOBO) was used to amplify the cDNA. MQ water was used as a negative control. cDNA from Huh-7 or UE7T-13 cells was used as a positive control.
# In order to determine hepatocyte differentiation markers, levels of expression of albumin were measured. […]
# [3] = tested on: CD90+CD271+ bone marrow-derived mesenchymal stem cells; test: Urea assay in CD90+CD271+ bone marrow-derived mesenchymal stem cells; details: hexachlorophene 4 μM, PN-3-13 20 μM, IC-2 40 μM; day 8 plus 96 h ammonium chloride
# Protocol: A urea assay was performed according to the following protocol. CD90^+CD271^+ bone marrow-derived mesenchymal stem cells were seeded on a 24-well plate at a cell density of 1.8×10^4 cells/cm^2. This day was designated as day 0. At day 1 corresponding to the next day, each medium was changed to a medium containing hexachlorophene (at a final concentration of 4 μM), HC-2 (at a final concentration of 20 μM), PN-3-13 (at a final concentration of 20 μM), IC-2 (at a final concentration of 40 μM), or 0.1% DMSO. At day 4, the medium was changed in a manner similar to that at day 1, and the cells were cultured until day 8. At day 8, the medium was removed, and replaced with a medium containing ammonium chloride (Nacalai Tesque) at a final concentration of 5 mM. The cells were further cultured for 96 h. At 96 h after the addition of ammonium chloride, levels of urea in the medium were determined using a QuantiChrom Urea Assay Kit (BioAssay Systems) according to the attached protocol by reading the absorbance at a wavelength of 520 nm with a microplate reader. The levels of urea were calculated based on a standard sample according to the attached calculation method. As a negative control for the urea assay, used were CD90^+CD271^+ bone marrow-derived mesenchymal stem cells that were seeded one day before the day of the immunostaining and were not subjected to the differentiation induction.
# [4] = tested on: UE7T-13 cells; test: Hepatocyte differentiation induction, RT-PCR of albumin (UE7T-13); details: 15 μM
# Protocol: After 24 h, the medium was changed to a medium containing IC-2, etc. After that, the medium was changed twice a week, and the cells were subcultured once a week to adjust a cell number at 9.0×10^3 cells/cm^2. Total RNA was collected at days 8, 16, and 24 after the initiation of the induction.
# Total RNA was extracted with a TRIzol reagent. After the extraction, in order to completely remove DNA, deoxyribonuclease was added and the mixture was incubated at 37° C. for 1 h. A SuperScript First-Stand Synthesis System for RT-PCR (Invitrogen) was used for reverse transcription, and an oligo dT primer was used to convert 1 μg of RNA into cDNA. To perform a PCR, the cDNA was diluted by 5 times and 1 μl of the cDNA was used. A recombinant Taq DNA polymerase (Invitrogen) was used for the PCR. With regard to primers for human albumin, 5′-[…]-3′ (SEQ ID NO: 1) and 5′-[…]-3′ (SEQ ID NO: 2) were used. The PCR involved 1 cycle of 95° C. for 2 min and 35 cycles of 95° C. for 30 sec, 58° C. for 30 sec, and 72° C. for 30 sec. Human glyceraldehyde 3-phosphate dehydrogenase (GAPDH) was used as an internal control. With regard to GAPDH primers, 5′-[…]-3′ (SEQ ID NO: 3) and 5′-[…]-3′ (SEQ ID NO: 4) were used. The PCR involved 1 cycle of 95° C. for 2 min and 20 cycles of 95° C. for 30 sec, 60° C. for 30 sec, and 72° C. for 30 sec. […]
substance,measurement,setting,value
"(6S,9aS)-6-phenyl-8-naphthalen-1-ylmethyl-4,7-dioxo-hexahydro-pyrazino[1,2-a]pyrimidine-1-carbocylic acid benzylamide [IC-2]",concentration that significantly inhibited the Wnt/β-catenin signaling pathway,[1],≥ 15 µM
same,albumin expression compared with 0.1% DMSO,[2],remarkable increase
same,cellular urea synthesis compared with negative control (0.1% DMSO),[3],apparent increase
same,levels of the albumin expression,[4],particularly high
